Columns and labels:
[1] = system: Puccinia recondita (PUCCRT); experiment: Field assessment of brown rust in spring wheat (curative tests); assay type: in vivo; conditions: for Test A % Control (based on AUDPC): early curative; for Test B % Control (based on AUDPC): late curative
[2] = system: Parastagonospora nodorum (LEPTNO); experiment: Field assessment of glume blotch in spring wheat (protectant and curative); assay type: in vivo; conditions: for 2 DC percent control based on AUDPC: 2 Day curative; for 3 DP percent control based on AUDPC: 3 Day protectant
Description: A fungicidal treatment containing Compound I, sprayed alone in an EC formulation […] and tank mixed with an adjuvant (Agnique BP-420, 50% w/w at 0.3% v/v), was applied at B37-39 growth stage of spring wheat ([…] variety) for protectant tests at rates of 25, 50, 100 and 150 g ai/ha. After three days, the wheat plants were artificially inoculated with Parastagonospora nodorum at B39 growth stage of wheat. Compound I was then applied two days later (same rates and formulations) to the plants at B39-41 growth stage of wheat (2 day curative test).

[3] = system: mixture of Fusarium graminearum and Fusarium culmorum isolates; assay type: in vivo; conditions: 100 g ai/ha, with Agnique BP-420
[4] = system: Blumeria graminis f. sp. tritici (ERYSGT); experiment: Field assessment of powdery mildew in Durum wheat, three trials; assay type: in vivo
[5] = system: Puccinia striiformis (PUCCST); experiment: Field assessment of yellow (stripe) rust in winter wheat, three curative trials; conditions: tank mix with Trycol 5941
Description: A fungicidal treatment containing Compound I was assessed against yellow rust of wheat (PUCCST) in three separate field trials. In each trial, all Compound I treatments were applied in a tank mix with Trycol 5941 (50% w/w) at 0.2% v/v as an adjuvant. […] The treatment was part of an experimental trial designed as a randomized complete block with four replications and a plot of approximately 1×2 m. Treatments were applied at water volume of 200 L/ha, using a backpack plot sprayer (BKPCKAIR, 1 m band width, FLATFAN F110-03 Lurmark nozzle) and pressurized at 180 kPa. Disease severity (% visual infection) was assessed 4 times on leaf 1 (L1, flag leaf, 33-47 DAA) and 5 times on leaf 2 (L2, 27-54 DAA).
The treatment was part of an experimental trial designed as a randomized complete block with four replications and a plot of approximately 2×3 m. Treatments were applied at water volume of 200 L/ha, using a backpack precision plot sprayer (BKCKENG, 2 m band width, FFA110-015 Hardi nozzle) and pressurized at 200 kPa. Disease severity (% visual infection) was assessed following application A one time on leaf 2 (23 DAA). Following application B, disease severity was assessed 4 times on leaf 1 (11-45 DAA) and 3 times on leaf 2 (11-31 DAA).
The treatment was part of an experimental trial designed as a randomized complete block with four replications and a plot of approximately 2×3 m. Treatments were applied at water volume of 150 L/ha, using a backpack precision plot sprayer ([sequence], 2 m band width, FLAT FAN FF015 nozzle). Disease severity (% visual infection) was assessed 3 times on leaf 1 (47-68 DAA) and 4 times on leaf 2 (36-68 DAA).
Disease severity (percentage of visual diseased foliage on whole plot or leaves) in all three field trials was recorded following EPPO PP1/26 guideline prescriptions. Area under the disease progress curve (AUDPC) was calculated for each plot in each of the three trials using the sets of recorded severity data. Relative AUDPC (% control based on AUDPC) was calculated as percent of the nontreated control.

[6] = 25 g ai/ha, with adjuvant Agnique BP-420
[7] = 50 g ai/ha, with adjuvant Agnique BP-420
[8] = 100 g ai/ha, with adjuvant Agnique BP-420
[9] = 150 g ai/ha, with adjuvant Agnique BP-420

N#Cc1ccc(Oc2ccc(C(F)(F)C(O)(Cn3ncnc3S)c3ccc(F)cc3F)nc2)cc1 (stereo not shown) [Compound I, 4-((6-(2-(2,4-difluorophenyl)-1,1-difluoro-2-hydroxy-3-(5-mercapto-1H-1,2,4-triazol-1-yl)propyl)pyridin-3-yl)oxy)benzonitrile]
Test A % Control (based on AUDPC) [1, 6]: A (76-100)
Test A % Control (based on AUDPC) ([1]; 50 g ai/ha, no adjuvant): A (76-100)
Test A % Control (based on AUDPC) [1, 7]: A (76-100)
Test A % Control (based on AUDPC) ([1]; 100 g ai/ha, no adjuvant): A (76-100)
Test A % Control (based on AUDPC) [1, 8]: A (76-100)
Test A % Control (based on AUDPC) [1, 9]: A (76-100)
Test B % Control (based on AUDPC) [1, 6]: B (51-75)
Test B % Control (based on AUDPC) ([1]; 50 g ai/ha, no adjuvant): A (76-100)
Test B % Control (based on AUDPC) [1, 7]: A (76-100)
Test B % Control (based on AUDPC) ([1]; 100 g ai/ha, no adjuvant): A (76-100)
Test B % Control (based on AUDPC) [1, 8]: A (76-100)
Test B % Control (based on AUDPC) [1, 9]: A (76-100)
2 DC percent control based on AUDPC [2, 6]: C (26-50)
2 DC percent control based on AUDPC ([2]; 50 g ai/ha, no adjuvant): C (26-50)
2 DC percent control based on AUDPC [2, 7]: C (26-50)
2 DC percent control based on AUDPC [2, 8]: B (51-75)
2 DC percent control based on AUDPC [2, 9]: B (51-75)
3 DP percent control based on AUDPC [2, 6]: C (26-50)
3 DP percent control based on AUDPC ([2]; 50 g ai/ha, no adjuvant): C (26-50)
3 DP percent control based on AUDPC [2, 7]: C (26-50)
3 DP percent control based on AUDPC [2, 8]: B (51-75)
3 DP percent control based on AUDPC [2, 9]: B (51-75)
Percent Control (calculated with FHB index using incidence and % infection) ([3]; sprayed on heads at flowering one day before inoculation, winter wheat): B (51-75)
Yield ([3]; winter wheat crop harvest, untreated 6.0): 8.4 t/ha
% Control (AUDPC over 3 trials) ([4]; 25 g ai/ha, EC formulation, Adjuvant X (Plurafac LF 1300 EC)): B (51-75)
% Control (AUDPC over 3 trials) ([4]; 25 g ai/ha, SC formulation, Adjuvant Y (Agnique BP420 EW with Agnique FOH TDA-9)): B (51-75)
% Control (AUDPC over 3 trials) ([4]; 50 g ai/ha, EC formulation, Adjuvant X (Plurafac LF 1300 EC)): B (51-75)
% Control (AUDPC over 3 trials) ([4]; 50 g ai/ha, SC formulation, Adjuvant Y (Agnique BP420 EW with Agnique FOH TDA-9)): B (51-75)
% Control (AUDPC over 3 trials) ([4]; 75 g ai/ha, EC formulation, Adjuvant X (Plurafac LF 1300 EC)): A (76-100)
% Control (AUDPC over 3 trials) ([4]; 75 g ai/ha, SC formulation, Adjuvant Y (Agnique BP420 EW with Agnique FOH TDA-9)): B (51-75)
% Control (AUDPC over 3 trials) ([4]; 100 g ai/ha, EC formulation, Adjuvant X (Plurafac LF 1300 EC)): A (76-100)
% Control (AUDPC over 3 trials) ([4]; 100 g ai/ha, SC formulation, Adjuvant Y (Agnique BP420 EW with Agnique FOH TDA-9)): A (76-100)
% Control (AUDPC over 3 trials) ([4]; 150 g ai/ha, EC formulation, Adjuvant X (Plurafac LF 1300 EC)): A (76-100)
% Control (AUDPC over 3 trials) ([4]; 150 g ai/ha, SC formulation, Adjuvant Y (Agnique BP420 EW with Agnique FOH TDA-9)): A (76-100)
Curative Trials (% Control), AUDPC average over three trials ([5]; 50 g ai/ha): B (51-75)
Curative Trials (% Control), AUDPC average over three trials ([5]; 100 g ai/ha): B (51-75)
Curative Trials (% Control), AUDPC average over three trials ([5]; 150 g ai/ha): B (51-75)

From patent US20210298305A1, “USE OF A DIFLUORO-(2-HYDROXYPROPYL)PYRIDINE COMPOUND AS A FUNGICIDE FOR CONTROL OF PHYTOPATHOGENIC FUNGI OF WHEAT” (Dow AgroSciences LLC, priority 2016, published 2021)
